Measurements as given in patent US20120094998A1, “Oligomer-Protein Tyrosine Kinase Inhibitor Conjugates” (Nektar Therapeutics, priority 2009, published 2012).
Converted amounts (≈) assume the structure as drawn.

Columns and labels:
Thermodynamic solubility = assay type: physicochemical; settings: aqueous buffer, thermodynamic from solid; phosphate buffered saline, pH 7.4; ambient temperature overnight
Method: Test compound (2.5 mg of solid; n=1) is weighed in a clear glass vial and buffer (0.5 mL) is added (phosphate buffered saline, pH 7.4). The solution is agitated at ambient temperature overnight using a vial roller system. […] Duplicate aliquots (50 μL) are sampled from the filtrate and diluted with one volume of 0.1 N hydrochloric acid and methanol (1:1 v/v) before analysis by HPLC-UV. […] The concentration of test compound in the filtrate is quantified relative to the concentration standard.
Analysis is performed using a gradient HPLC-UV system with a total cycle time of six minutes.

[1] = Caco-2 permeability (bi-directional; pH 7.4/pH 7.4); assay type: in vitro ADME; settings: human; for Papp A→B at 120 min, 10 μM: Caco-2, pH 7.4, read-out: Permeability (cm^2/s × 10^6)
Method: Caco-2 cells are used as an in vitro model of the human intestinal epithelium and permit assessment of the intestinal permeability of potential drugs. Test compound is added to either the apical or basolateral side of a confluent monolayer of Caco-2 cells and permeability is measured by monitoring the appearance of the test compound on the opposite side of the membrane using LC-MS/MS. Apparent permeability (Papp) coefficients, efflux ratio for the test compound and recovery values were determined.
To measure the permeability of test compound in the apical to basolateral (A-B) and basolateral to apical (B-A) direction across Caco-2 cells.
Caco-2 cells obtained from the ATCC are used between passage numbers 40-60. Cells are seeded on to Millipore Multiscreen Caco-2 plates at 1×10^5 cells/cm^2. They are cultured for 20 days in DMEM and media is changed every two or three days. On day 20 the permeability study is performed.
On day 20, the monolayers are prepared by rinsing both basolateral and apical surfaces twice with HBSS at 37° C. Cells are then incubated with HBSS in both apical and basolateral compartments for 40 min to stabilize physiological parameters. HBSS is then removed from the apical compartment and replaced with test compound dosing solutions. […] The fluorescent integrity marker lucifer yellow is also included in the dosing solution. Analytical standards are made from dosing solutions. The apical compartment inserts are then placed into ‘companion’ plates containing fresh HBSS. For basolateral to apical (B-A) permeability determination the experiment is initiated by replacing buffer in the inserts then placing them in companion plates containing dosing solutions. At 120 minutes the companion plate is removed and apical and basolateral samples diluted for analysis by LC-MS/MS. Test compound permeability was assessed in duplicate. On each plate, compounds of known permeability characteristics were run as controls.
Test and control compounds were quantified by LC-MS/MS cassette analysis using a 5-point calibration with appropriate dilution of the samples. Cyprotex generic analytical conditions were used. The starting concentration (C0) and experimental recovery were calculated from both apical and basolateral compartment concentrations.
The integrity of the monolayers throughout the experiment was checked by monitoring lucifer yellow permeation using fluorimetric analysis. Lucifer yellow permeation is low if monolayers have not been damaged. […] If lucifer yellow Papp values are above QC limits in both replicate wells for a test compound, the compound was re-tested.
Data Analysis: The permeability coefficient for each compound (Papp) is calculated from the following equation: […]
wherein dQ/dt is the rate of permeation of the drug across the cells, C0 is the donor compartment concentration at time zero and A is the area of the cell monolayer. C0 is obtained from analysis of donor and receiver compartments at the end of the incubation period. It is assumed that all of the test compound measured after 120 minutes incubation was initially present in the donor compartment at 0 minutes. An efflux ratio (ER) is derived as follows:
Talinolol (a known P-gp substrate) is also included as a control compound to assess whether functional P-gp is present in the Caco-2 cell monolayer.

ABL = ABL (Homo sapiens, UniProt P00519); test: Off-chip mobility-shift kinase assay (Caliper LABCHIP), ABL; settings: for ABL AVG % Activity at 1.0E−09: concentration 1.0E−09; for ABL AVG % Activity at 1.0E−10: concentration 1.0E−10; for ABL AVG % Activity at 3.0E−09: concentration 3.0E−09; for ABL AVG % Activity at 3.0E−10: concentration 3.0E−10; for ABL AVG % Activity at 1.0E−11: concentration 1.0E−11; for ABL AVG % Activity at 3.0E−11: concentration 3.0E−11
Sequence of ABL (P00519 whole entry): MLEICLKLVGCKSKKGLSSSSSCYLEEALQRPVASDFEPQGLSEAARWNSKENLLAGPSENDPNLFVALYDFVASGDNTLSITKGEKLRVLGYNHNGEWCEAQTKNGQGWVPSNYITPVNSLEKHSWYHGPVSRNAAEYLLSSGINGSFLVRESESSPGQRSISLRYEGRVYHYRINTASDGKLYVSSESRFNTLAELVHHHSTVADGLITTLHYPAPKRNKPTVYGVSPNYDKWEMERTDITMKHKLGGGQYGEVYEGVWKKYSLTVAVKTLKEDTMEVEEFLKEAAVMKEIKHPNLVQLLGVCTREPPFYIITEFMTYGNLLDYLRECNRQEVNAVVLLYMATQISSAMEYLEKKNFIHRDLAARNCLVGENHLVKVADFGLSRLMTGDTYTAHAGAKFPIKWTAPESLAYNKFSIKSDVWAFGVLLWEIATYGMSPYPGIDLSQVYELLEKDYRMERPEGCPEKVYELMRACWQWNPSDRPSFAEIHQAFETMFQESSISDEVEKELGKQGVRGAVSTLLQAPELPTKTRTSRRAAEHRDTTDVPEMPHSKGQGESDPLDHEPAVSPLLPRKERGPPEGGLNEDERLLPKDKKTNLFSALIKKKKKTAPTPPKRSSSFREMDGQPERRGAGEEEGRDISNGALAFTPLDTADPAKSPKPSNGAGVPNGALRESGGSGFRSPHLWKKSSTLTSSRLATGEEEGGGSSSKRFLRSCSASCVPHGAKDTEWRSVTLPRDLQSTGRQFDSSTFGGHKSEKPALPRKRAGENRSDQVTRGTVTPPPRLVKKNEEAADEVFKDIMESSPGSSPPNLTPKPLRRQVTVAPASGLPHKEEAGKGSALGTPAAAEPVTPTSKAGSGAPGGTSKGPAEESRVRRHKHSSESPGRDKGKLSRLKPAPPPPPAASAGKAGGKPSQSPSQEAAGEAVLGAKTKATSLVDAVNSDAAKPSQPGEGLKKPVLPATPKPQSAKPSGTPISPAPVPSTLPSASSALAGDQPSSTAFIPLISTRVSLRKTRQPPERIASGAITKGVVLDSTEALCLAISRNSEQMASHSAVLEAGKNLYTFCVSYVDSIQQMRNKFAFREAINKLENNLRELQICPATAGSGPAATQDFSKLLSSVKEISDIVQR

PDGFRβ = PDGFRβ (Homo sapiens, UniProt P09619); test: Off-chip mobility-shift kinase assay (Caliper LABCHIP), PDGFR
Sequence of PDGFRβ (P09619 33-1106): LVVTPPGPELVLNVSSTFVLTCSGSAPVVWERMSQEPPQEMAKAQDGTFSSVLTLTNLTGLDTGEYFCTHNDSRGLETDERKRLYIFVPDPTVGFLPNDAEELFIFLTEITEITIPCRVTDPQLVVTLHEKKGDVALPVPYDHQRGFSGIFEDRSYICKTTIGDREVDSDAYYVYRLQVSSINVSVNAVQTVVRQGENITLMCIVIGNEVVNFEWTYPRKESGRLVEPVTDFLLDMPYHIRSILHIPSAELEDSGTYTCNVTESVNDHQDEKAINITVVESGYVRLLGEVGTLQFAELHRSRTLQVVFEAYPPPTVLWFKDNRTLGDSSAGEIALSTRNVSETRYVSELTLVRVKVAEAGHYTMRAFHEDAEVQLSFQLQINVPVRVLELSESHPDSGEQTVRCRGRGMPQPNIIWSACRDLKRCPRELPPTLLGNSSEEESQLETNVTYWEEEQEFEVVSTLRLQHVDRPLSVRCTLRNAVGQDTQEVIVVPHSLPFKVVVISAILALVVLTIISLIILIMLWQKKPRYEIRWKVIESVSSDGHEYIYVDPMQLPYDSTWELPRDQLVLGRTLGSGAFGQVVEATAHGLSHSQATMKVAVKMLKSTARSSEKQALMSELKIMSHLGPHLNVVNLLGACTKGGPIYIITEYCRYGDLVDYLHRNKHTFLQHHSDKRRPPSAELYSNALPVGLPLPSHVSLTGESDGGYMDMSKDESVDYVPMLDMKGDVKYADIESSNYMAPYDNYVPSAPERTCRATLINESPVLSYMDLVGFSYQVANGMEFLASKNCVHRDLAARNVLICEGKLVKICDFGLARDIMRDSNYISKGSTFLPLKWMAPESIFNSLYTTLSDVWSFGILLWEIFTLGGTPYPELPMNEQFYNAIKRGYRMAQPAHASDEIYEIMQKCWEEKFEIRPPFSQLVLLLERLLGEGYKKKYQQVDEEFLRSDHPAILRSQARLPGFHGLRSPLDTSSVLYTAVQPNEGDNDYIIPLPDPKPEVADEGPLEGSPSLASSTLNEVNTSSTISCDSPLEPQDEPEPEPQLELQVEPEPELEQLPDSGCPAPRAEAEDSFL

cKIT = cKIT (Homo sapiens, UniProt P10721); test: Off-chip mobility-shift kinase assay (Caliper LABCHIP), C-kit
Sequence of cKIT (P10721 26-976): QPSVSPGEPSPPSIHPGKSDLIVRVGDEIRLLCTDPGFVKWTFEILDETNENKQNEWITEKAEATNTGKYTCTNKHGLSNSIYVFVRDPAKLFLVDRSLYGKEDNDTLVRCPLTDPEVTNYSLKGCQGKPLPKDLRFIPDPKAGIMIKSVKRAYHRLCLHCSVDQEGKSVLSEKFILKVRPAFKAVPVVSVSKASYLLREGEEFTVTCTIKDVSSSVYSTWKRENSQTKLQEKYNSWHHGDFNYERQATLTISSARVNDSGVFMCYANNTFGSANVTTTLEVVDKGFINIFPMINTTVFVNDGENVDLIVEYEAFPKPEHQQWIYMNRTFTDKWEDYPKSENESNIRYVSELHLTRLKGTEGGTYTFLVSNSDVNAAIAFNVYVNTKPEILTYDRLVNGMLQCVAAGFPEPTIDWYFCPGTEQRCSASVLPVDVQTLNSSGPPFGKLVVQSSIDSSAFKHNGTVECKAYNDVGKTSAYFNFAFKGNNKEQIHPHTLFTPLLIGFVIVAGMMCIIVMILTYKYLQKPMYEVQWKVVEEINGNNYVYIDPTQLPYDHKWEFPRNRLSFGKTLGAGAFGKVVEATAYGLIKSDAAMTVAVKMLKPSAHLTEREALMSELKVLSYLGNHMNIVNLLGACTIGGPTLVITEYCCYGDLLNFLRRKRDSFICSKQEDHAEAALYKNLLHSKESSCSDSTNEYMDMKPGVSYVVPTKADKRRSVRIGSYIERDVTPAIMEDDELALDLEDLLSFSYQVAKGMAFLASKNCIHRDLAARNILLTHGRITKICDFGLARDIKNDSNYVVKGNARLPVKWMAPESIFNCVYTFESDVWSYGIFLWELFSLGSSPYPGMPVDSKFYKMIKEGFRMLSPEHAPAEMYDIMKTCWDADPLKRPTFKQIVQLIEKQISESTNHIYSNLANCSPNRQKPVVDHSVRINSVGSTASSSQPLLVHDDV

[2] = imatinib-corresponding compounds
[3] = dasatinib-corresponding compounds

A solubility (Thermodynamic solubility) of 3300 µg/mL (≈ 4.62 mM) and a Papp A→B at 120 min, 10 μM [1] of 1 ± 0.2 ×10⁻⁶ cm/s were found for `COCCOCCOCCOCCOCCN1CCN(Cc2ccc(C(=O)Nc3ccc(C)c(Nc4nccc(-c5cccnc5)n4)c3)cc2)CC1` [mPEG5-N′-Imatinib] in this work.
A solubility (Thermodynamic solubility) of 3000 µg/mL (≈ 3.74 mM), a Papp A→B at 120 min, 10 μM [1] of 0.3 ± 0.01 ×10⁻⁶ cm/s and an efflux ratio at 120 min, 10 μM ([1]; Caco-2, ratio of B-A and A-B permeabilities, 10 μM, 120 minutes) of 75.7 were found for `COCCOCCOCCOCCOCCOCCOCCN1CCN(Cc2ccc(C(=O)Nc3ccc(C)c(Nc4nccc(-c5cccnc5)n4)c3)cc2)CC1` [mPEG7-N′-Imatinib] in this work. The IC50 (ABL) was ≥ 3000 nM, the “ABL AVG % Activity at 1.0E−06” value (ABL; concentration 1.0E−06, imatinib-corresponding compounds) was 69% and the “ABL AVG % Activity at 1.0E−07” value (ABL; concentration 1.0E−07, imatinib-corresponding compounds) was 83%. For the same compound, the “ABL AVG % Activity at 1.0E−08” value (ABL; concentration 1.0E−08, imatinib-corresponding compounds) was 92%, the “ABL AVG % Activity at 1.0E−09” value (ABL; [2]) was 96% and the “ABL AVG % Activity at 1.0E−10” value (ABL; [2]) was 96%. For the same compound, the “ABL AVG % Activity at 3.0E−06” value (ABL; concentration 3.0E−06, imatinib-corresponding compounds) was 52%, the “ABL AVG % Activity at 3.0E−07” value (ABL; concentration 3.0E−07, imatinib-corresponding compounds) was 78% and the “ABL AVG % Activity at 3.0E−08” value (ABL; concentration 3.0E−08, imatinib-corresponding compounds) was 88%. The “ABL AVG % Activity at 3.0E−09” value (ABL; [2]) was 96%, the “ABL AVG % Activity at 3.0E−10” value (ABL; [2]) was 97% and the IC50 (PDGFRβ) was 310 nM. The “PDGFR AVG % Activity at 1.0E−06” value (PDGFRβ; concentration 1.0E−06) was 18%, the “PDGFR AVG % Activity at 1.0E−07” value (PDGFRβ; concentration 1.0E−07) was 76% and the “PDGFR AVG % Activity at 1.0E−08” value (PDGFRβ; concentration 1.0E−08) was 91%. The “PDGFR AVG % Activity at 1.0E−09” value (PDGFRβ; concentration 1.0E−09) was 98%, the “PDGFR AVG % Activity at 1.0E−10” value (PDGFRβ; concentration 1.0E−10) was 95% and the “PDGFR AVG % Activity at 3.0E−06” value (PDGFRβ; concentration 3.0E−06) was 0%. For the same compound, the “PDGFR AVG % Activity at 3.0E−07” value (PDGFRβ; concentration 3.0E−07) was 43%, the “PDGFR AVG % Activity at 3.0E−08” value (PDGFRβ; concentration 3.0E−08) was 91% and the “PDGFR AVG % Activity at 3.0E−09” value (PDGFRβ; concentration 3.0E−09) was 93%. For the same compound, the “PDGFR AVG % Activity at 3.0E−10” value (PDGFRβ; concentration 3.0E−10) was 100%, the IC50 (cKIT) was 2500 nM and the “C-kit AVG % Activity at 1.0E−05” value (cKIT; concentration 1.0E−05) was 16%. The “C-kit AVG % Activity at 1.0E−06” value (cKIT; concentration 1.0E−06) was 69%, the “C-kit AVG % Activity at 1.0E−07” value (cKIT; concentration 1.0E−07) was 91% and the “C-kit AVG % Activity at 1.0E−08” value (cKIT; concentration 1.0E−08) was 95%. The “C-kit AVG % Activity at 3.0E−05” value (cKIT; concentration 3.0E−05) was 4%, the “C-kit AVG % Activity at 3.0E−06” value (cKIT; concentration 3.0E−06) was 44% and the “C-kit AVG % Activity at 3.0E−07” value (cKIT; concentration 3.0E−07) was 84%. The “C-kit AVG % Activity at 3.0E−08” value (cKIT; concentration 3.0E−08) was 97% and the “C-kit AVG % Activity at 3.0E−09” value (cKIT; concentration 3.0E−09) was 95%.
With `COCCOCCOCCOCCOCCNC(=O)OCCN1CCN(c2cc(Nc3ncc(C(=O)Nc4c(C)cccc4Cl)s3)nc(C)n2)CC1` [mPEG5-NHCOO-Dasatinib] the IC50 (ABL) was 0.3 nM, the “ABL AVG % Activity at 1.0E−09” value (ABL; [3]) was 4% and the “ABL AVG % Activity at 1.0E−10” value (ABL; [3]) was 80%. For the same compound, the “ABL AVG % Activity at 1.0E−11” value (ABL; [3]) was 97%, the “ABL AVG % Activity at 3.0E−09” value (ABL; [3]) was −1% and the “ABL AVG % Activity at 3.0E−10” value (ABL; [3]) was 45%. The “ABL AVG % Activity at 3.0E−11” value (ABL; [3]) was 94%.
For `COCCOCCOCCOCC(=O)NC(CC(C)C)C(=O)OCCN1CCN(c2cc(Nc3ncc(C(=O)Nc4c(C)cccc4Cl)s3)nc(C)n2)CC1` (stereo not shown) [mPEG3-Leu-Dasatinib], the IC50 (ABL) was 0.43 nM, the “ABL AVG % Activity at 1.0E−09” value (ABL; [3]) was 14% and the “ABL AVG % Activity at 1.0E−10” value (ABL; [3]) was 85%. For the same compound, the “ABL AVG % Activity at 1.0E−11” value (ABL; [3]) was 99%, the “ABL AVG % Activity at 3.0E−09” value (ABL; [3]) was 1% and the “ABL AVG % Activity at 3.0E−10” value (ABL; [3]) was 62%. The “ABL AVG % Activity at 3.0E−11” value (ABL; [3]) was 97%.
For `COCCOCCOCCOCC(=O)NC(C(=O)OCCN1CCN(c2cc(Nc3ncc(C(=O)Nc4c(C)cccc4Cl)s3)nc(C)n2)CC1)C(C)C` (stereo not shown) [mPEG3-Val-Dasatinib], the IC50 (ABL) was 0.37 nM, the “ABL AVG % Activity at 1.0E−09” value (ABL; [3]) was 10% and the “ABL AVG % Activity at 1.0E−10” value (ABL; [3]) was 85%. For the same compound, the “ABL AVG % Activity at 1.0E−11” value (ABL; [3]) was 98%, the “ABL AVG % Activity at 3.0E−09” value (ABL; [3]) was 0% and the “ABL AVG % Activity at 3.0E−10” value (ABL; [3]) was 54%. The “ABL AVG % Activity at 3.0E−11” value (ABL; [3]) was 95%.
